# Data reported in patent US20160030407A1, “Method of Treating Inflammatory Lung Disease” (priority 2010, published 2016).
# Where “and” joins values, the source holds several entries; their conditions need not be identical. Identical values can stand only once. Entries after “also recorded” stand apart in the source; their conditions may differ.
# Legend:
# [1] = Treatment of a patient with autism and a seizure disorder; format: in vivo, human; settings: one patient, 1.0 mg three times per day
# Description: A patient, who was diagnosed with autism and a seizure disorder, had brain surgery and began rehabilitation the following month.
# nAChR α3/β4 [2] = target: T1, nAChR α3/β4 (Homo sapiens, UniProt P30926+P32297); experiment: nAChR α3/β4 channel agonist assay (FLIPR); format: cell-based; settings: 0.3-1000 μM
# T1 sequence (P32297 32-505): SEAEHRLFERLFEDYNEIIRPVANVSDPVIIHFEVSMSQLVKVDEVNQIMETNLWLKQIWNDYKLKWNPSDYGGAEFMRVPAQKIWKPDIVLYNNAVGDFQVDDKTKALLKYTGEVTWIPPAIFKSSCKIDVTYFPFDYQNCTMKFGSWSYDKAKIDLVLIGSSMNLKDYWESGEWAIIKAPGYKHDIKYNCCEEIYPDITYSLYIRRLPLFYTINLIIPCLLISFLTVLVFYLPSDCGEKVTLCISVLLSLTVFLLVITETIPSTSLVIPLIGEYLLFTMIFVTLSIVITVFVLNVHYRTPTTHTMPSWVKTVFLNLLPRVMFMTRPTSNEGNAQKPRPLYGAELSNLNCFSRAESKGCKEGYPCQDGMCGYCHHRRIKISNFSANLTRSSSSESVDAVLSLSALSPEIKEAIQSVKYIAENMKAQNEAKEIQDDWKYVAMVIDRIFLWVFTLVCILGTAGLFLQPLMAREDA
# T1 sequence (P30926 22-498): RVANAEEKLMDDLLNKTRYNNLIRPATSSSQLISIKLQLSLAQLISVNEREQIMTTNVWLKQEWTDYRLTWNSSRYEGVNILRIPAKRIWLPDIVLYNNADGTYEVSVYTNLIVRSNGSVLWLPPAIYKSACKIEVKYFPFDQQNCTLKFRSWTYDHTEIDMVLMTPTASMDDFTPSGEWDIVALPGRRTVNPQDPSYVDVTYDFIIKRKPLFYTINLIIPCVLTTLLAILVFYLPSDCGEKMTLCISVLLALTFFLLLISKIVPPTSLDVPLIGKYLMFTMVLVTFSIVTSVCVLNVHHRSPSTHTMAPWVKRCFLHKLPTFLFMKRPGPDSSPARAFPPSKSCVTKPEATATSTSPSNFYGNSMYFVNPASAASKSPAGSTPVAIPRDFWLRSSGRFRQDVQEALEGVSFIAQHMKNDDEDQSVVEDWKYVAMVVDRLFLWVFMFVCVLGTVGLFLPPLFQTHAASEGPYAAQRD
# Experimental: (§1) Briefly, cells were incubated with […] dye for 30 min at 37° C.
# nAChR α7 = target: T2, nAChR α7 (Homo sapiens, UniProt P36544); experiment: nAChR α7 channel agonist assay (FLIPR); format: cell-based; settings: in presence of PNU-120596; maximal stimulation not achieved
# T2 construct: host or cells: CHO cells coexpressing RIC-3
# T2 sequence (P36544 23-502): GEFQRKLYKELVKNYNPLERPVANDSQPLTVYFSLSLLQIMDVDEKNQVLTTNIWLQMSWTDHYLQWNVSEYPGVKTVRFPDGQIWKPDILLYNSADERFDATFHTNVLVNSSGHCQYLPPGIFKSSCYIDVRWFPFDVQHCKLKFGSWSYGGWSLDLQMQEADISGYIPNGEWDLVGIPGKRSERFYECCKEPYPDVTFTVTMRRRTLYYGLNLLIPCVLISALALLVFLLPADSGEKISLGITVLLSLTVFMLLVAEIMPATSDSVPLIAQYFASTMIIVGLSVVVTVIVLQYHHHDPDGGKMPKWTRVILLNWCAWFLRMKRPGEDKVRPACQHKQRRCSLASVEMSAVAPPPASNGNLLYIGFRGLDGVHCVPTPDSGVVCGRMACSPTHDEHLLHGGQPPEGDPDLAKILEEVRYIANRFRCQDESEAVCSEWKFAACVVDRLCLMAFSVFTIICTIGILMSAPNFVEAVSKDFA
# Experimental: as §1
# Therefore, the assay of agonist activity for either Ach or for the test articles was conducted in the presence of the positive allosteric modulator.
# BACE-1 mRNA = BACE-1 mRNA levels in SHSY cells (RTPCR); format: cell-based, human; settings: 30 minutes, TNF-α used to increase BACE expression
# Description: TNF-α was used to increase BACE expression.
# nAChR α4/β2 [3] = target: T3, nAChR α4/β2 (Homo sapiens, UniProt P17787+P43681); experiment: nAChR α4/β2 channel agonist assay (FLIPR); format: cell-based; settings: 0.3-1000 μM
# T3 construct: host or cells: HEK293 cells, transient
# T3 sequence (P43681 29-627): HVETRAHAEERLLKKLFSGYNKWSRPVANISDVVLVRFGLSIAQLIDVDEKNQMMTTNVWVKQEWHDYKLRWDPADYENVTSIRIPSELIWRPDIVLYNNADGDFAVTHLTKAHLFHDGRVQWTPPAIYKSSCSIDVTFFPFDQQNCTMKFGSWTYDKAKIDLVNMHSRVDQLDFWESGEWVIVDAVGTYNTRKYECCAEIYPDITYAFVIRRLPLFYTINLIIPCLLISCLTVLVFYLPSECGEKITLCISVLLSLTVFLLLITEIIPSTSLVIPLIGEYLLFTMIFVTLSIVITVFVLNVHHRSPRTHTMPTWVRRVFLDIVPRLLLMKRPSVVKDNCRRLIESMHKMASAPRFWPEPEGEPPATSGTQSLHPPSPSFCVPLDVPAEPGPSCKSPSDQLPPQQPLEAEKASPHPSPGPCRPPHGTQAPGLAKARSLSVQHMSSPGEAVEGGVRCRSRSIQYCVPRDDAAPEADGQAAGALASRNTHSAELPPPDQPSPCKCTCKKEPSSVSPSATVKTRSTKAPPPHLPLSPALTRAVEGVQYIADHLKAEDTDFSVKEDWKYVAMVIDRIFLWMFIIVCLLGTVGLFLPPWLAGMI
# T3 sequence (P17787 26-502): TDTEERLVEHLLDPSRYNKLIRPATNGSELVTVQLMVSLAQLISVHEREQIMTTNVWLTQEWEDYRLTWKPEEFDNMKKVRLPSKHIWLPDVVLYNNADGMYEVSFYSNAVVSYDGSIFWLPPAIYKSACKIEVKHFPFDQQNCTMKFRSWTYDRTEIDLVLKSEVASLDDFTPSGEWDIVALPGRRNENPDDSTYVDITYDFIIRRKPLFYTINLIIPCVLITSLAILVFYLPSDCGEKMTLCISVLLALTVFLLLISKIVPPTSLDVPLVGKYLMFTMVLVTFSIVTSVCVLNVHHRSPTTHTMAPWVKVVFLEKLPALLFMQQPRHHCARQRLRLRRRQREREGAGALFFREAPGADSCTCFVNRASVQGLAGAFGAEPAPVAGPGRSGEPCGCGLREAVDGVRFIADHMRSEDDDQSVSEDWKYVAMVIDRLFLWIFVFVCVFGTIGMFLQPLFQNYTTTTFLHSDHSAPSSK
# Experimental: as §1
# [4] = Single i.v. dose toxicity: hematology; format: in vivo, Sprague-Dawley rats
# Description: On day 15, urine was collected on all surviving animals for urinalysis. The animals were euthanized and bled via cardiac puncture. Blood was collected for hematology, clinical chemistry, and coagulation analysis. Tissues were collected, weighed, and stored in 10% neutral-buffered formalin for possible future analysis.
# autoimmune thyroiditis = experiment: Autoimmune thyroiditis model (Example 16B): thyroid histopathology; format: in vivo, CBA/J mice; settings: 0.05 mg/ml in drinking water; day 21; p=0.023
# Experimental: (§2) In another experiment, eighteen CBA/J female mice were immunized with mouse thyroglobulin, emulsified in complete Freund's adjuvant, on day 0 and day 7. One group of mice (n=10) drank regular water. […] Mice were sacrificed 21 days after the first immunization to collect the thyroid gland and the blood. The thyroid was analyzed for the presence of infiltrating mononuclear cells. The blood was analyzed for the levels of antibodies against thyroglobulin.
# [5] = test system: antibodies against thyroglobulin; experiment: Autoimmune thyroiditis model (Example 16B): thyroglobulin antibodies; format: in vivo, CBA/J mice; settings: 0.05 mg/ml in drinking water; day 21
# Experimental: as §2
# [6] = test system: phosphorylated p65 (NFκB); experiment: p65 phosphorylation in brain after intracranial TNFα; format: in vivo, mice (B6/SJL); settings: mice, 2 mg/kg i.p., normalized to actin
# Experimental: After 5 minutes, mice were intracranially injected with 0.5 mg of TNFα. Mice were euthanized ten minutes after the intracranial injection. The portion of the brain surrounding the intracranial site of injection was collected, and proteins were extracted. Phosphorylation of p65 was measured with an antibody towards phosphorylated p65.
# nAChR α4/β2 [7] = target: T3, nAChR α4/β2; format: cell-based; settings: 100 μM Ach + 0.3 μM epibatidine; not concentration-dependent, IC50s could not be determined
# Experimental: as §1
# nAChR α3/β4 [8] = target: T1, nAChR α3/β4; format: cell-based; settings: with 10 μM Ach
# Experimental: as §1
# [9] = test system: T cells, antigen presentation; experiment: Experimental Autoimmune Thyroiditis (Example 16A): lymphoid typing by flow cytometry; format: in vivo, mice; settings: p=0.0143
# Experimental: Thyroiditis was induced by injection of thyroglobulin emulsified in complete Freund's adjuvant […]. On days 0 and 7, female mice received subcutaneous injection of 100 μg thyroglobulin (2 injections of 50 μg each). Control mice drank water. […] Mice were sacrificed on day 21.
# Cervical lymph nodes were removed for lymphoid typing by flow cytometry. Spleen and peritoneal macrophages were removed for ex vivo stimulation.
# BACE-1 = BACE-1 protein expression in SHSY cells (Western blot); format: cell-based, human; settings: 24 hours, corrected for actin
# [10] = 0.1 mg/kg, gender F, group mean
# [11] = 0.1 mg/kg, gender M, group mean
# [12] = 0.75 mg/kg, gender F, group mean
# [13] = 0.75 mg/kg, gender M, group mean
# [14] = anatabine 0.1 mg/kg, female rats, individual animals
# [15] = anatabine 0.1 mg/kg, male rats, individual animals
# [16] = anatabine 0.75 mg/kg, female rats, individual animals
# [17] = anatabine 0.75 mg/kg, male rats, individual animals
smiles,measurement,setting,value
"C1=CCC(c2cccnc2)NC1 (racemic) [Anatabine, 1,2,3,6-tetrahydro-[2,3′]bipyridinyl]",cognitive benefits,[1],improved communication and language skills and the ability to focus
same,frequency of seizures,[1]; over 3 weeks,decreased from one per day to approximately one per week
same,agonist activity,nAChR α3/β4 [2],showed agonist activity
same,agonist activity,nAChR α7,showed agonist activity
same,BACE-1 mRNA expression,BACE-1 mRNA,reduced this signal in a concentration-dependent manner
same,agonist activity,nAChR α4/β2 [3],full agonist activity
same,BASOPHIL,[4]; [10],0.0%
same,EOSINOPHIL,[4]; [10],0.0%
same,MCV,[4]; [10],60.0 fL
same,MONOCYTE,[4]; [10],1.8%
same,NEUTROPHIL SEG,[4]; [10],8.0%
same,PLATELET COUNT,[4]; [10],997300 µL⁻¹
same,RBC,[4]; [10],7.8e+06 µL⁻¹
same,RETICULOCYTE COUNT,[4]; [10],4.5%
same,WBC,[4]; [10],9300 µL⁻¹
same,BASOPHIL,[4]; [11],0.0%
same,EOSINOPHIL,[4]; [11],0.2%
same,MONOCYTE,[4]; [11],2.0%
same,NEUTROPHIL SEG,[4]; [11],8.6%
same,PLATELET COUNT,[4]; [11],1.2486e+06 µL⁻¹
same,RBC,[4]; [11],7.4e+06 µL⁻¹
same,RETICULOCYTE COUNT,[4]; [11],5.5%
same,WBC,[4]; [11],15600 µL⁻¹
same,BASOPHIL,[4]; [12],0.0%
same,EOSINOPHIL,[4]; [12],0.0%
same,MONOCYTE,[4]; [12],0.8%
same,NEUTROPHIL SEG,[4]; [12],8.6%
same,PLATELET COUNT,[4]; [12],1.2696e+06 µL⁻¹
same,RBC,[4]; [12],7.5e+06 µL⁻¹
same,RETICULOCYTE COUNT,[4]; [12],3.3%
same,WBC,[4]; [12],10300 µL⁻¹
same,BASOPHIL,[4]; [13],0.0%
same,EOSINOPHIL,[4]; [13],0.0%
same,MCHC,[4]; [13],34.0%
same,MONOCYTE,[4]; [13],1.4%
same,NEUTROPHIL SEG,[4]; [13],9.8%
same,PLATELET COUNT,[4]; [13],1.3258e+06 µL⁻¹
same,RBC,[4]; [13],7.5e+06 µL⁻¹
same,RETICULOCYTE COUNT,[4]; [13],4.4%
same,WBC,[4]; [13],12100 µL⁻¹
same,ANISOCYTOSIS,[4]; [14],SLIGHT
same,BASOPHIL,[4]; [14],0%
same,EOSINOPHIL,[4]; [14],0%
same,HCT,[4]; [14],44%
same,HGB,[4]; [14],17 gm/dL
same,LYMPHOCYTE,[4]; [14],89% and 90% and 91% and 93% and 88%
same,MCHC,[4]; [14],34%
same,MONOCYTE,[4]; [14],3% and 2% (2×) and 1% (2×)
same,NEUTROPHILSEG,[4]; [14],8% (2×) and 7% and 6% and 11%
same,PLATELETEST,[4]; [14],ADEQUATE; also recorded: DECREASED
same,POLYCHROMASIA,[4]; [14],SLIGHT
same,RETICULOCYTE COUNT,[4]; [14],4.8% and 5.4% and 6.1% and 3.7% and 2.4%
same,ANISOCYTOSIS,[4]; [15],SLIGHT
same,BASOPHIL,[4]; [15],0%
same,EOSINOPHIL,[4]; [15],0% (4×) and 1%
same,HCT,[4]; [15],45%
same,LYMPHOCYTE,[4]; [15],87% (2×) and 94% and 90% and 88%
same,MCHC,[4]; [15],34% (2×) and 32%
same,MONOCYTE,[4]; [15],1% (2×) and 3% (2×) and 2%
same,NEUTROPHILSEG,[4]; [15],12% and 3% and 7% and 10% and 11%
same,PLATELETEST,[4]; [15],ADEQUATE; also recorded: INCREASED
same,POLYCHROMASIA,[4]; [15],SLIGHT
same,RETICULOCYTE COUNT,[4]; [15],6.1% and 5.4% and 4.7% and 5.6% and 5.9%
same,ANISOCYTOSIS,[4]; [16],SLIGHT
same,BASOPHIL,[4]; [16],0%
same,EOSINOPHIL,[4]; [16],0%
same,HGB,[4]; [16],15 gm/dL
same,LYMPHOCYTE,[4]; [16],93% (2×) and 87% and 91% and 89%
same,MONOCYTE,[4]; [16],1% (2×) and 0% (2×) and 2%
same,NEUTROPHILSEG,[4]; [16],6% and 12% and 9% (2×) and 7%
same,PLATELETEST,[4]; [16],ADEQUATE; also recorded: INCREASED
same,POLYCHROMASIA,[4]; [16],SLIGHT
same,RETICULOCYTE COUNT,[4]; [16],3.4% and 1.8% and 3.2% and 3.8% and 4.1%
same,ANISOCYTOSIS,[4]; [17],SLIGHT
same,BASOPHIL,[4]; [17],0%
same,EOSINOPHIL,[4]; [17],0%
same,LYMPHOCYTE,[4]; [17],86% and 89% (2×) and 92% and 88%
same,MCH,[4]; [17],21 UUG and 22 UUG
same,MONOCYTE,[4]; [17],1% (3×) and 2% (2×)
same,NEUTROPHILSEG,[4]; [17],13% and 10% (3×) and 6%
same,PLATELETEST,[4]; [17],ADEQUATE; also recorded: DECREASED
same,POLYCHROMASIA,[4]; [17],SLIGHT
same,RETICULOCYTE COUNT,[4]; [17],3.6% and 4.2% and 4.1% and 4.7% and 5.3%
same,mean corpuscular hemoglobin concentration (MCHC) vs control,"[4]; female rats, 0.1 mg/kg anatabine i.v.",small but statistically significant decrease
same,mean corpuscular volume (MCV) and mean corpuscular hemoglobin (MCH) vs control,"[4]; female rats, […] anatabine, 0.75 mg/kg nicotine i.v.","small, but statistically significant decreases"
same,frequency and severity of thyroiditis,autoimmune thyroiditis,developed thyroiditis less frequently and of lower severity
same,levels of thyroglobulin antibodies,[5],no effect on the levels of thyroglobulin antibodies
same,p65 phosphorylation in brain,[6],reduced p65 phosphorylation in mouse brain
same,inhibition,nAChR α4/β2 [7],inhibited receptor activity
same,potentiation,nAChR α3/β4 [8],Neither nicotine nor anatabine potentiated
same,activated T cells vs control,[9]; cervical lymph nodes,fewer activated T cells
same,regulatory T cells vs control,[9]; cervical lymph nodes,more regulatory T cells
same,regulatory T cells vs control,"[9]; cervical lymph nodes, listed as anatabine",fewer T regulatory cells than control mice
same,ability to present antigens vs control,[9],a lower ability to present antigens
same,BACE-1 protein expression,BACE-1,reduced BACE expression
